43 compounds from patent US6172091A, “1,2-Disubstituted cyclopropanes” (Ortho-McNeil Pharmaceutical, Inc., priority 1999, dated 2001) can be followed below.

Bounds are passed on as bounds.

Assay [1] addresses T1, calcium sensing receptor as found in the human parathyroid gland (Homo sapiens, UniProt P41180).
T1 construct: expressed in transfected cells; host or cells: HEK 293
T1 sequence (P41180 20-1078): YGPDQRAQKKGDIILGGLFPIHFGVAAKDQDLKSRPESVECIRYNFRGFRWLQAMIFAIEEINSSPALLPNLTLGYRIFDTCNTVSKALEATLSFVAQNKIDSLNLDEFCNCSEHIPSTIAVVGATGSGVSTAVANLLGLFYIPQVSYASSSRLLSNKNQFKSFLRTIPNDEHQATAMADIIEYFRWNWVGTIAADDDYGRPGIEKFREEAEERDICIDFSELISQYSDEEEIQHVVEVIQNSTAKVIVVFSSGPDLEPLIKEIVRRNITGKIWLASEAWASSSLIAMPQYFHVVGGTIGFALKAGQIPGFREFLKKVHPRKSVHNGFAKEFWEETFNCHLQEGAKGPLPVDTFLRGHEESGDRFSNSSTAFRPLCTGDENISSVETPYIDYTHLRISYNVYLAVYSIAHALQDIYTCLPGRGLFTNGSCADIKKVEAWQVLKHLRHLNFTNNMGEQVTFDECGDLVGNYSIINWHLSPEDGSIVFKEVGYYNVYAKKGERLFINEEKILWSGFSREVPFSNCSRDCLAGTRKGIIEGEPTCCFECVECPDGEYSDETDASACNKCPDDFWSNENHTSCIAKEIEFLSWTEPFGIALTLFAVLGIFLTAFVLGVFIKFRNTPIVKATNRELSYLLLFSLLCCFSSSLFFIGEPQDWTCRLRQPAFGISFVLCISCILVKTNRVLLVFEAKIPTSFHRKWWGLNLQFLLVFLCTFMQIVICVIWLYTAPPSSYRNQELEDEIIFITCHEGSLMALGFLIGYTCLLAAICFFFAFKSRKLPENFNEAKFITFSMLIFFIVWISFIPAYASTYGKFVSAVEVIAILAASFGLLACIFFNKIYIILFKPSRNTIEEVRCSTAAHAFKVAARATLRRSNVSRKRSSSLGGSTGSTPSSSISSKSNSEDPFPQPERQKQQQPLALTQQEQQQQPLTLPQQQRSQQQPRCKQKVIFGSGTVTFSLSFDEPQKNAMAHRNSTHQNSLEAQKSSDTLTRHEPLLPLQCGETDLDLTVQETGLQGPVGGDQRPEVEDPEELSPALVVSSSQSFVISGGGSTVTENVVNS
In words: calcium mobilization fluorescence (FLIPR) assay, agonist mode. Type of assay: cell-based. To be noted: transfected HEK 293 cells; 1 mM calcium standard; Tables 2-7; read-out: In Vitro: CS50, where potency is at 50% of the calcium standard potency. As for the experimental part:
(§1) In vitro potency is measured via calcium mobilization in a fluorescence assay using HEK 293 cells transfected to express the same calcium sensing receptor as found in the human parathyroid gland. In this assay calcium-sensing receptor agonists and antagonists are detected. The assay is conducted in a 96-well plate format with the use of FLIPR (fluorescent imaging plate reader; Molecular Devices, Sunnyvale, Calif.). The HEK 293 cell media is replaced with the fluorescence dye FLUO-3AM and Pluronic detergent in FLIPR assay buffer. Cells are incubated 60 min (in the dark, at room temperature), then washed with assay buffer and placed in FLIPR. Images are collected by FLIPR in the absence of test compound, then in the presence of test compound (at 25 µM) and then after addition of a calcium challenge (at 1 mM). In the agonist assay the difference between maximum and minimum fluorescence values is measured following test compound addition. Hits have a change in fluorescence greater than or equal to 50% of that seen with a 1 mM calcium standard. In the antagonist assay the difference between maximum and minimum fluorescence values is measured following the calcium challenge addition. When compared to challenge in the absence of test compound, hits reduce fluorescence by at least 50%. In vivo activity is measured via parathyroid hormone (PTH) supression by test compounds in a rat model. Compound is administered orally using 0.5% Tween 80 in distilled water as vehicle, with a volume of approximately 10 mL/kg body weight. Blood samples are taken at 15 minutes (and 4 h if required) post oral dosing. Serum PTH levels are determined with an immunoradiometric assay.
(§2) Not all compounds were tested in each of the screens. […] Each entry represents a mixture of cis and trans cyclopropanes (R,S; S,R; R,R; S,S) with R absolute configuration when R^3=CH3. Table 2 lists compounds that are trans at the cyclopropane (R,R; S,S) with R absolute configuration at the benzylamine position, or without stereochemistry at the benzylamine. Table 3 lists compounds with R,R absolute stereochemistry at the cyclopropane and a mixture of stereochemistry at the benzylamine position. 20. In vitro data in Table 1 is percent activation of the calcium-sensing receptor versus baseline. In vitro data in Tables 2-7 is expressed as a CS50, where potency is at 50% of the calcium standard potency, and the unit is μM. In vivo data represents % blood serum PTH vs. vehicle at 30 mg/kg test compound, levels measured after 15 minutes.
Background: Calcium flux is commonly read through the fluorescence of an indicator in the cells.

Assay [2] relates to parathyroid hormone (PTH). In words: parathyroid hormone (PTH) suppression in a rat model. Format: in vivo. Particulars: 30 mg/kg test compound, levels measured after 15 minutes; for In Vivo: % blood serum PTH vs. vehicle: oral, 30 mg/kg; for change in vivo at 30 mg/kg: Rattus norvegicus, po, 0.25 h, read-out: In Vivo: % blood serum PTH vs. vehicle. The protocol:
as §1, §2

On to `COc1cccc([C@@H](C)NC[C@@H]2C[C@H]2c2cccc(F)c2)c1` (mixture of isomers) [Compound 20, N-(trans-2-(3-fluorophenyl)cyclopropanylmethyl)-1-(R)-(3-methoxyphenyl)ethylamine], for which the EC50 in assay [1] turned out to be 11 µM. For the same compound, in assay [2], the “In Vivo: % blood serum PTH vs. vehicle” value is recorded as -95.2%.

For the compound `c1ccc([C@@H]2C[C@H]2CNCc2ccccn2)cc1` (relative stereo) [Compound 28], the EC50 in assay [1] was over 25 µM. In addition, the change in vivo at 30 mg/kg in assay [2] is 72%.

In the case of `c1ccc([C@@H]2C[C@H]2CNCc2cccnc2)cc1` (relative stereo) [Compound 29], in assay [1], the EC50 was over 25 µM. The change in vivo at 30 mg/kg in assay [2] is 87.8%.

As to `c1ccc([C@@H]2C[C@H]2CNCc2ccncc2)cc1` (relative stereo) [Compound 30], the EC50 in assay [1] is over 25 µM. Further, the change in vivo at 30 mg/kg in assay [2] worked out at 70.1%.

As to `COc1cccc(CNC[C@@H]2C[C@H]2c2ccccc2)c1` (relative stereo) [Compound 31], in assay [1], the EC50 was over 25 µM. Moreover, the change in vivo at 30 mg/kg in assay [2] is -26.5%.

Consider `COc1cccc([C@@H](C)NCC2CC2c2ccccc2F)c1` (single isomer, unassigned) [Compound 18], for which the EC50 in assay [1] was determined as 11.3 µM. The “In Vivo: % blood serum PTH vs. vehicle” value in assay [2] was -83.9%.

With `COc1cccc([C@@H](C)NCC2CC2c2ccccc2F)c1` (single isomer, unassigned) [Compound 19], the EC50 in assay [1] was determined as 9.6 µM. The “In Vivo: % blood serum PTH vs. vehicle” value in assay [2] is -89.2%.

Turning to `COc1cccc([C@@H](C)NCC2CC2c2cc(C)ccc2C)c1` (stereo partly shown) [Compound 1], in assay [2], the “In Vivo: % blood serum PTH vs. vehicle” value is on record as “+31.4%”.

On to `COc1cccc([C@@H](C)NCC2CC2c2ccccc2)c1` (stereo partly shown) [Compound 3], for which the change in vivo at 30 mg/kg in assay [2] is -62.1%.

Take `COc1cccc([C@@H](C)NCC2CC2c2ccccc2Cl)c1` (stereo partly shown) [Compound 4]: the change in vivo at 30 mg/kg in assay [2] is -11.9%.

Consider `COc1cccc([C@@H](C)NCC2CC2c2ccc(Cl)cc2)c1` (stereo partly shown) [Compound 6], for which, in assay [2], the change in vivo at 30 mg/kg is -9.3%.

For `COc1cccc([C@@H](C)NCC2CC2c2ccccn2)c1` (stereo partly shown) [Compound 9], the EC50 in assay [1] was 6.5 µM.

Regarding `COc1cccc([C@@H](C)NCC2CC2c2cccnc2)c1` (stereo partly shown) [Compound 10], the EC50 in assay [1] came out at 37.1 µM.

Consider `COc1cccc([C@@H](C)NCC2CC2c2ccncc2)c1` (stereo partly shown) [Compound 11], for which the EC50 in assay [1] is over 25 µM.

As to `COc1cccc([C@@H](C)NCC2CC2c2ccccc2C)c1` (stereo partly shown) [Compound 12], the EC50 in assay [1] was found to be 8.8 µM. Moreover, in assay [2], the change in vivo at 30 mg/kg was -95.8%.

For `COc1cccc([C@@H](C)NCC2CC2c2cccc(C)c2)c1` (stereo partly shown) [Compound 13], the EC50 in assay [1] amounted to 9.5 µM. For the same compound, the change in vivo at 30 mg/kg in assay [2] is -98.2%.

As for `COc1cccc([C@@H](C)NCC2CC2c2ccccc2C(F)(F)F)c1` (stereo partly shown) [Compound 14], the EC50 in assay [1] was 52.2 µM. The change in vivo at 30 mg/kg in assay [2] was -34.7%.

For the compound `COc1cccc([C@@H](C)NCC2CC2c2cccc(C(F)(F)F)c2)c1` (stereo partly shown) [Compound 15], in assay [1], the EC50 was found to be 13.5 µM. In addition, the change in vivo at 30 mg/kg in assay [2] came out at 4.2%.

In the case of `COc1cccc([C@@H](C)NCC2CC2c2ccc(C(F)(F)F)cc2)c1` (stereo partly shown) [Compound 16], the EC50 in assay [1] is over 25 µM. Also, in assay [2], the change in vivo at 30 mg/kg is -14.4%.

With `COc1cccc([C@@H](C)NCC2CC2c2ccccc2F)c1` (stereo partly shown) [Compound 17], the EC50 in assay [1] was 5 µM. Moreover, in assay [2], the change in vivo at 30 mg/kg was -94.8%.

As to `COc1cccc([C@@H](C)NC[C@H]2C[C@@H]2c2cccc(F)c2)c1` [Compound 21], the EC50 in assay [1] came to 10.9 µM.

`COc1cccc([C@@H](C)NC[C@@H]2C[C@H]2c2cccc(F)c2)c1` [Compound 22]: the EC50 in assay [1] is 9.3 µM. Also, the “In Vivo: % blood serum PTH vs. vehicle” value in assay [2] is given as -93.4%.

For `COc1cccc([C@@H](C)NCC2CC2c2ccc(F)cc2)c1` (stereo partly shown) [Compound 23], in assay [1], the EC50 turned out to be 13.5 µM. Moreover, in assay [2], the change in vivo at 30 mg/kg was -55%.

For the compound `COc1cccc([C@@H](C)NCC2CC2c2c(F)cccc2F)c1` (stereo partly shown) [Compound 24], the EC50 in assay [1] stood at 11.9 µM. Moreover, the change in vivo at 30 mg/kg in assay [2] is -85.4%.

With `COc1cccc([C@@H](C)NCC2CC2c2cccs2)c1` (stereo partly shown) [Compound 25], in assay [1], the EC50 is 7.1 µM. Moreover, the change in vivo at 30 mg/kg in assay [2] was -89%.

On to `COc1cccc([C@@H](C)NCC2CC2c2ccsc2)c1` (stereo partly shown) [Compound 26], for which, in assay [1], the EC50 was found to be 3.4 µM.

Regarding `COc1cccc([C@@H](C)NCC2CC2c2cccn2C)c1` (stereo partly shown) [Compound 27], the EC50 in assay [1] turned out to be 7.8 µM.

As for `COc1cccc([C@@H](C)NCC2CC2c2cc(C)ccc2C)c1` (stereo partly shown) [Compound 32], in assay [1], the EC50 was determined as 12.4 µM. In addition, in assay [2], the “In Vivo: % blood serum PTH vs. vehicle” value is listed as -13.5%.

Take `COc1cccc([C@@H](C)NCC2CC2c2ccc([N+](=O)[O-])cc2[N+](=O)[O-])c1` (stereo partly shown) [Compound 34]: the EC50 in assay [1] was over 25 µM.

On to `COc1cccc([C@@H](C)NCC2CC2c2ccc(Cl)s2)c1` (stereo partly shown) [Compound 35], for which, in assay [2], the change in vivo at 30 mg/kg is -15.4%.

Turning to `COc1cccc([C@@H](C)NCC2CC2c2ccc(C)s2)c1` (stereo partly shown) [Compound 36], in assay [2], the change in vivo at 30 mg/kg is -34.2%.

Consider `COc1cccc([C@@H](C)NCC2CC2c2cc(Br)cs2)c1` (stereo partly shown) [Compound 37], for which the change in vivo at 30 mg/kg in assay [2] is -24.8%.

In the case of `COc1cccc([C@@H](C)NCC2CC2c2sccc2C)c1` (stereo partly shown) [Compound 38], in assay [2], the change in vivo at 30 mg/kg is -51%.

As to `CC(NC[C@@H]1C[C@H]1c1ccccc1)c1cccc(OC(F)(F)F)c1` (stereo partly shown) [Compound 39], the change in vivo at 30 mg/kg in assay [2] was 0%.

Take `COc1cccc([C@@H](C)N(C[C@@H]2C[C@H]2c2ccccc2)C(=O)C(C)(C)C)c1` [Compound 55]: the EC50 in assay [1] is over 25 µM.

Take `COc1cccc([C@@H](C)NC[C@H]2C[C@@H]2c2cccc(F)c2)c1` [Compound 71]: the change in vivo at 30 mg/kg in assay [2] is -78.7%.

Take `COc1cccc([C@@H](C)NC[C@@H]2C[C@H]2c2cccc(F)c2)c1` [Compound 72]: the “In Vivo: % blood serum PTH vs. vehicle” value in assay [2] is -93.4%.

With `COc1cccc([C@@H](C)NCC2CC2c2cccc(F)c2)c1` (stereo partly shown) [Compound 73], the “In Vivo: % blood serum PTH vs. vehicle” value in assay [2] is -52.5%.

As to `COc1cccc([C@@H](C)NCC2CC2c2cccc(F)c2)c1` (stereo partly shown) [Compound 74], the “In Vivo: % blood serum PTH vs. vehicle” value in assay [2] is reported as -2.6%.

Turning to `COc1cccc([C@H](C)NC[C@H]2C[C@@H]2c2cccc(F)c2)c1` [Compound 75], the change in vivo at 30 mg/kg in assay [2] is -0.9%.

As for `COc1cccc([C@H](C)NC[C@@H]2C[C@H]2c2cccc(F)c2)c1` [Compound 76], the change in vivo at 30 mg/kg in assay [2] worked out at 16.8%.

As for `COc1cccc([C@H](C)NCC2CC2c2cccc(F)c2)c1` (stereo partly shown) [Compound 77], the “In Vivo: % blood serum PTH vs. vehicle” value in assay [2] is listed as “+2.1%”.

As for `COc1cccc([C@H](C)NCC2CC2c2cccc(F)c2)c1` (stereo partly shown) [Compound 78], the “In Vivo: % blood serum PTH vs. vehicle” value in assay [2] is “+21.4%”.
